According to US20170112896A1, “SMALL MOLECULE RAC OR RHO INHIBITORS” (Ohio State Innovation Foundation, priority 2014, published 2017):
“Also recorded” adds a separate entry of the source. Where two headings read alike, the source gives them in different places. Square brackets hold non-standard residues; d marks the D form. Peptide text beside a SMILES is read from it. Phe(4-F) = N[C@@H](Cc1ccc(F)cc1)C(=O)O; d2Nal = N[C@H](Cc1ccc2ccccc2c1)C(=O)O; dNle = CCCC[C@@H](N)C(=O)O

Columns and labels:
[1] = test system: A549 lung cancer cells
[2] = molecular target: T1, Ras(G12V)-Raf RBD interaction (Homo sapiens, UniProt P01116, G12V); assay: HTRF assay, inhibition of Ras-Raf RBD interaction; format: binding; conditions: relative to 9A1
T1 construct: The G12V mutant K-Ras (amino acids 1-185) was recombinantly fused to glutathione 5-transferase (GST) at its N-terminus; GST (N, cleaved yes); made in house; host or cells: Escherichia coli BL21
Description: Recombinant HA-tagged K-Ras (no GST, 50 nM), GST-Raf RBD (50 nM each), a monoclonal anti-HA antibody labeled with acceptor d2 (2 μg/mL), a monoclonal anti-GST antibody labeled with donor Tb (0.25 μg/mL) (Cisbio), and increasing concentrations of cyclic peptide (0-20 μM) were mixed in PBS (total volume of 20 μL) in a 384-well plate. The plate was incubated overnight at 4° C. and the HTRF signal was measured on a Molecular Devices Spectramax M5 or a Tecan infinite M1000 Pro plate reader. The data were analyzed by Prism 6.0 from Graphpad Software, Inc. (La Jolla, Calif.) and IC50 values were obtained by fitting the data to dose-response-inhibition curve.

[3] = test system: Akt, Mek and Erk phosphorylation in H1975 cells; assay: Western blot of Akt, Mek, Erk phosphorylation in H1975 cells; format: cell-based; conditions: 10 μM, 10 min
[4] = test system: Akt, Mek and Erk phosphorylation in A549 cells; assay: Western blot of Akt, Mek, Erk phosphorylation in A549 cells; format: cell-based; conditions: 10 μM, 10 min
[5] = test system: Akt, Mek and Erk phosphorylation in H1299 cells; assay: Western blot of Ras signaling (Akt, Mek, Erk phosphorylation) in H1299 cells; format: cell-based; conditions: for IC50: 10 min treatment
Description: (§1) Two well characterized Ras effector pathways are the Raf-Mek-Erk and PI3K-Akt signaling pathways (Karnoub, A. E. et al. (2008) Nat Rev. Mol. Cell Biol. 9:517). To determine whether the cyclic peptides inhibited the intracellular Ras activity, Applicant monitored the phosphorylation levels of Mek, Erk, and Akt in cells before and after treatment with the Ras inhibitors. […] In order to rule out that the observed downregulation of P-Mek, P-Erk and P-Akt is caused by inhibition of EGFR signaling, the effect of Cyclosrasin 9A5 on the phosphorylation of the EGFR was tested by performing an IP/Western Blot experiment (FIG. 3E). Active, signaling EGFR is highly autohophosphorylated.

[6] = test system: Rac and Rho signaling (cofilin, Paxilin, FAK, Mek Ser298, c-Raf Ser338) in H1299 cells; assay: Western blot of effector proteins of Rac and Rho signaling in H1299 cells; format: cell-based; conditions: 13 μM
[7] = test system: EGF receptor phosphorylation; assay: IP/Western blot of EGFR phosphorylation; format: cell-based; conditions: 13 μM
Description: as §1

[8] = test system: actin filaments in A549 cells; assay: Actin filament staining (phalloidin-FITC) and cell morphology; format: cell-based; conditions: cells exposed to peptide
[9] = test system: Akt, Mek and Erk phosphorylation in H1650 cells; assay: Western blot of Akt, Mek, Erk phosphorylation in H1650 cells; format: cell-based; conditions: 10 μM, 10 min

T1 sequence (P01116 1-185 isoform P01116-2 G12V): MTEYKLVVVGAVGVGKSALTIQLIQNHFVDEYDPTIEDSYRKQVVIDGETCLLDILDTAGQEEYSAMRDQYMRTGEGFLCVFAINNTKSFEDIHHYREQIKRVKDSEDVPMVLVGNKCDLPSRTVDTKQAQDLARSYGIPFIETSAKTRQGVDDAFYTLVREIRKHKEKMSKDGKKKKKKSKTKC

CCCC[C@H]1NC(=O)[C@H](Cc2ccc(F)cc2)NC(=O)[C@H](CCCNC(=N)N)NC(=O)[C@@H](Cc2ccc3ccccc3c2)NC(=O)[C@H](CCCNC(=N)N)NC(=O)[C@H](CCCNC(=N)N)NC(=O)[C@H](CCCNC(=N)N)NC(=O)[C@@H](C)NC(=O)[C@H]([C@@H](C)O)NC(=O)[C@H](Cc2c[nH]c3ccccc23)NC(=O)[C@H](CCC(N)=O)NC1=O [Cyclorasin 9A5, (Trp-Thr-ala-Arg-Arg-Arg-nal-Arg-Fpa-nle-Gln)] (cyclo(WT[dA]RRR[d2Nal]R[Phe(4-F)][dNle]Q))
cell permeability / intracellular fluorescence [1]: improved cell permeability | higher potency than 9A1 against K-Ras [2]: 3 fold | Mek, Erk and Akt phosphorylation [3]: almost completely abolished; also recorded: can be inhibited | Mek, Erk and Akt phosphorylation [4]: significant Mek and Erk phosphorylation remained | basal phosphorylation of Mek and Akt ([5]; H1299 cells unstimulated with EGF, 10 μM for 10 min): inhibited | Mek, Erk and Akt phosphorylation ([5]; H1299 cells, 10 μM, 10 min): almost completely abolished | EGF-induced phosphorylation of Akt and Mek ([5]; H1299 cells, 13 μM, 5 min): significant reduction | phosphorylation level of Erk ([5]; H1299 cells, 13 μM, time course): decreased, but to a lesser extent and at a later time point | EGF-induced phosphorylation of Akt and Mek ([5]; H1299 cells, 13 μM, ≧10 min): completely abolished | IC50 ([5]; H1299 cells, read-out: IC50, inhibition of Akt phosphorylation): ~5 µM | IC50 ([5]; H1299 cells, read-out: IC50, inhibition of Mek phosphorylation): ~5 µM | phosphorylation of Paxilin (Tyr118), FAK (Tyr397), Mek (Ser298) and c-Raf (Ser338) [6]: dephosphorylated | phosphorylation of cofilin [6]: decreased | EGFR phosphorylation level [7]: does no affect; also recorded: no effect | cell morphology [8]: rapid morphological changes | Mek, Erk and Akt phosphorylation [9]: almost completely abolished; also recorded: can be inhibited
